Laboratory results published in patent US20240327463A1, “ANTIBACTERIAL PRODUCTS” (priority 2017, published 2024).
≈ marks a conversion by molar mass, not a printed value. Read-outs that look alike come from different tables or passages of the source. Each block holds one molecule with its values, some of them ahead of it. Bridge positions count the residues as written; N and C are the ends. Square brackets hold non-standard residues; d marks the D form. Peptide text beside a SMILES is read from it. * marks the point of attachment. dNMeF = CN[C@H](Cc1ccccc1)C(=O)O; X2 = O=C(CCCCCN1CNC(=S)NC1)*

Experiments:
S. aureus ATCC 25923 = type: cell-based, Staphylococcus aureus
Experimental: (§1) Bacteria were grown on Mueller Hinton broth (oxoid). All incubations were at 37° C. Dilutions were carried out using Mueller Hinton. […] This process was repeated up to well 11. […] This was repeated three times. […] Results are tabulated in the Examples.

MRSA 1003 = type: cell-based, Staphylococcus aureus
Experimental: as §1

[1] = test system: Staphylococcus saprophyticus ATCC BAA 750; type: cell-based; conditions: ATCC BAA 750
Experimental: as §1

[2] = test system: Staphylococcus saprophyticus ATCC 15305; type: cell-based; conditions: ATCC 15305
Experimental: as §1

[3] = test system: Staphylococcus saprophyticus ATCC 49453; type: cell-based; conditions: ATCC 49453
Experimental: as §1

[4] = test system: Staphylococcus saprophyticus ATCC 49907; type: cell-based; conditions: ATCC 49907
Experimental: as §1

SA4299 = type: cell-based; conditions: Table 11
Experimental: as §1

[5] = test system: Bacillus Cereus ATCC 11788; type: cell-based
Experimental: as §1

SE12228 = type: cell-based
Experimental: as §1

[6] = test system: Bacillus Subtilis ATCC 6633; type: cell-based
Experimental: as §1

MRSA ATCC 33591 = test system: MRSA ATCC 33591
Outline: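 Twofold dilutions of DMSO-solubilised peptides (from 512 μg/ml) in Mueller Hinton; 24 h incubation, 37° C; visible growth scored.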

VRE 1008 = type: cell-based, Enterococcus faecalis
Experimental: as §1

VRE 1004 = type: cell-based, Enterococcus faecalis
Experimental: as §1

VRE 1001 = type: cell-based, Enterococcus faecalis
Experimental: as §1

VRE 1002 = type: cell-based, Enterococcus faecalis
Experimental: as §1

MRSA DM21455 (eye) = test: microbe, parasite or virus in culture
Experimental: (§2) For MIC testing all peptides were dissolved in DMSO (according to the method of L. L. Ling, et al., Nature 2015, 517, 455-459). Bacteria were grown on Mueller Hinton broth (oxoid). All incubations were at 37° C. Dilutions were carried out using Mueller Hinton. 100 μl of autoclaved Mueller Hinton broth was added to wells 2-12 on a 96-well plate. 200 μl of the peptide was added to well one at a concentration of 512 μg/ml. 100 μl of peptide in well one was taken up and pipetted into well two. The mixture was then mixed via pipetting before 100 μl was taken up and pipetted into well three. This process was repeated up to well 11. […] This was repeated three times. The 96-well plates were then incubated for 24 hours. The MIC was determined to be the lowest concentration at which there was no growth visible.

[7] = test system: Staphylococcus aureus ATCC 29213; test: microbe, parasite or virus in culture
Experimental: as §2

VRE ATCC 700802 = test: microbe, parasite or virus in culture
Experimental: as §2

VRE ATCC 29212 = test: microbe, parasite or virus in culture
Experimental: as §2

MRSA DR 42412 (sputum) = test: microbe, parasite or virus in culture
Experimental: as §2

MRSA ATCC 700699 = test: microbe, parasite or virus in culture
Experimental: as §2

M. smegmatis ATCC 607 = test: microbe, parasite or virus in culture
Experimental: as §2

[8] = Staphylococcus aureus ATCC 29213, Table 4B

- MIC against S. aureus ATCC 25923 (S. aureus ATCC 25923): 2 µg/mL (≈ 1.4 µM)
Compound: CC[C@@H](C)[C@@H](NC(=O)[C@@H](CCC(N)=O)NC(=O)[C@H](CO)NC(=O)[C@@H](NC(=O)[C@@H](Cc1ccccc1)NC)[C@@H](C)CC)C(=O)N[C@H](C(=O)N[C@@H](CO)C(=O)N[C@H]1C(=O)N[C@@H](C)C(=O)N[C@@H](CCCCNC(=O)CCCCCN2CNC(=S)NC2)C(=O)N[C@@H]([C@@H](C)CC)C(=O)O[C@H]1C)[C@@H](C)CC [Compound 24, Ahx-thiourea-Lys10-teixobactin] (H-[dNMeF]IS[dQ][dI]IS[dT]AK(X2)I; ester 8-C)

Compound: CC[C@@H](C)[C@@H](NC(=O)[C@@H](CCCNC(=N)N)NC(=O)[C@H](CO)NC(=O)[C@@H](NC(=O)[C@@H](Cc1ccccc1)NC)[C@@H](C)CC)C(=O)N[C@H](C(=O)N[C@@H](CO)C(=O)N[C@H]1C(=O)N[C@@H](CCCNC(=N)N)C(=O)N[C@@H](CC(C)C)C(=O)N[C@@H]([C@@H](C)CC)C(=O)O[C@H]1C)[C@@H](C)CC [Compound 30, D-Arg4-Arg9-Leu10-teixobactin] (H-[dNMeF]IS[dR][dI]IS[dT]RLI; ester 8-C)
- MIC (MRSA 1003): 0.5 µg/mL (≈ 0.38 µM)
- MIC [1]: <0.0625 µg/mL
- MIC [2]: <0.0625 µg/mL
- MIC [3]: <0.0625 µg/mL
- MIC [4]: <0.0625 µg/mL
- MIC (SA4299): 0.5 µg/mL (≈ 0.38 µM)
- MIC [5]: 1 µg/mL (≈ 0.761 µM)
- MIC (SE12228): <0.0625 µg/mL
- MIC [6]: <0.0625 µg/mL
- MIC against MRSA ATCC 33591 (MRSA ATCC 33591; MRSA ATCC 33591): 1 µg/mL (≈ 0.761 µM)
- MIC (VRE 1008): 1 µg/mL (≈ 0.761 µM)
- MIC (VRE 1004): 1 µg/mL (≈ 0.761 µM)
- MIC (VRE 1001): 1 µg/mL (≈ 0.761 µM)
- MIC (VRE 1002): 1 µg/mL (≈ 0.761 µM)
- MIC (MRSA DM21455 (eye); DM21455 (eye)): 1 µg/mL (≈ 0.761 µM)
- MIC ([7]; ATCC 29213): 1 µg/mL (≈ 0.761 µM)
- MIC (VRE ATCC 700802; ATCC 700802): 1 µg/mL (≈ 0.761 µM)
- MIC (VRE ATCC 29212; ATCC 29212): 1 µg/mL (≈ 0.761 µM)
- MIC (MRSA DR 42412 (sputum); DR 42412 (sputum)): 1 µg/mL (≈ 0.761 µM)
- MIC (MRSA ATCC 700699; ATCC 700699): 1 µg/mL (≈ 0.761 µM)

Compound: CC[C@H](C)[C@H](NC(=O)[C@@H](Cc1ccccc1)NC)C(=O)N[C@@H](CO)C(=O)N[C@H](CCC(N)=O)C(=O)N[C@@H](C(=O)N[C@H](C(=O)N[C@@H](CO)C(=O)N[C@H]1C(=O)N[C@@H](C)C(=O)N[C@@H](CCCNC(=N)N)C(=O)N[C@@H]([C@@H](C)CC)C(=O)O[C@H]1C)[C@@H](C)CC)[C@@H](C)CC [Compound 6, Arg10-teixobactin, reference compound]
- MIC (MRSA*) (MRSA ATCC 33591; MRSA ATCC 33591, Table 4A): 2 µg/mL (≈ 1.61 µM)
- MIC (MRSA DM21455 (eye); MRSA 3: MRSA DM21455 (eye), clinical isolate, Table 4B): 0.5 µg/mL (≈ 0.402 µM)
- MBC (MRSA DM21455 (eye); MRSA 3: MRSA DM21455 (eye), Table 4B): 1 µg/mL (≈ 0.804 µM)
- MBC [7, 8]: 1 µg/mL (≈ 0.804 µM)
- MIC [7, 8]: 0.25 µg/mL (≈ 0.201 µM)
- MIC (M. smegmatis ATCC 607; M. smegmatis ATCC 607, Table 4B): 1 to 2 µg/mL
- MIC (VRE ATCC 700802; VRE 1: VRE ATCC 700802, Table 4B): 2 µg/mL (≈ 1.61 µM)
- MIC (VRE ATCC 29212; VRE 2: VRE ATCC 29212, Table 4B): 2 µg/mL (≈ 1.61 µM)
- MBC (MRSA DR 42412 (sputum); MRSA 2: MRSA DR 42412 (sputum), Table 4B): 0.5 µg/mL (≈ 0.402 µM)
- MIC (MRSA ATCC 700699; MRSA 1: MRSA ATCC 700699, Mueller Hinton Broth, Table 4B): 1 µg/mL (≈ 0.804 µM)
- MBC (MRSA ATCC 700699; MRSA 1: MRSA ATCC 700699, Table 4B): 2 µg/mL (≈ 1.61 µM)

- MIC (MRSA*) (MRSA ATCC 33591; ATCC 33591): 0.25 µg/mL (≈ 0.208 µM)
- MIC (MRSA DM21455 (eye); DM21455 (eye)): ≤0.0625 µg/mL
- MIC ([7]; ATCC 29213): ≤0.0625 µg/mL
- MIC (M. smegmatis ATCC 607; ATCC 607): 1 µg/mL (≈ 0.832 µM)
- MIC (VRE ATCC 700802; ATCC 700802): 0.25 µg/mL (≈ 0.208 µM)
- MIC (VRE ATCC 29212; ATCC 29212): 0.25 µg/mL (≈ 0.208 µM)
- MIC (MRSA DR 42412 (sputum); DR 42412 (sputum)): ≤0.0625 µg/mL
- MIC (MRSA ATCC 700699; ATCC 700699): 0.25 µg/mL (≈ 0.208 µM)
Compound: CC[C@@H](C)[C@@H](NC(=O)[C@@H](CCC(N)=O)NC(=O)[C@H](CO)NC(=O)[C@@H](NC(=O)[C@@H](Cc1ccccc1)NC)[C@@H](C)CC)C(=O)N[C@H](C(=O)N[C@@H](CO)C(=O)N[C@H]1C(=O)N[C@@H](C)C(=O)N[C@@H](CC(C)C)C(=O)N[C@@H]([C@@H](C)CC)C(=O)O[C@H]1C)[C@@H](C)CC [Compound 19, Leu10-teixobactin]
- MBC (MRSA DM21455 (eye); DM21455 (eye)): ≤0.0625 µg/mL
- MBC ([7]; ATCC 29213): 0.125 µg/mL (≈ 0.104 µM)
- MBC (MRSA DR 42412 (sputum); DR 42412 (sputum)): ≤0.0625 µg/mL
- MBC (MRSA ATCC 700699; ATCC 700699): 2 µg/mL (≈ 1.66 µM)
